Experimental findings from paper PMC4597782 (Nature, 2015) are described below.

For assay [1], the target named is T1, mGluR2 (Rattus norvegicus, UniProt P31421). In kind it is biochemical.
In assay [2] the target is T2, mGluR3 (Rattus norvegicus, UniProt P31422). Type of assay: cell-based. The following applies: read-out: EC50 of glutamate-dependent decrease in ensemble FRET; HEK293T cells.
In assay [3] the target is T2, mGluR3. Type of assay: biochemical. The following applies: for average active state lifetime: 2 mM Ca2+ or 100 nM glutamate.
For assay [4], the target named is mGluR2 WT/YADA heterodimer (Rattus norvegicus, UniProt P31421, D295A/Y216A). In words: smFRET of mGluR2 WT/YADA heterodimers. Type of assay: biochemical. The following applies: near-saturating glutamate for the WT subunit.
Assay [5] has as its target mGluR2-YADA (Y216A and D295A) (Rattus norvegicus, UniProt P31421, D295A/Y216A). In words: smFRET of glutamate-insensitive mutant mGluR2-YADA. In kind it is biochemical. The following applies: 50 μM or 1 mM glutamate.
The target in assay [6] is T1, mGluR2. Type of assay: cell-based. The following applies: normalized to response to 1 mM glutamate.

Structures are written as SMILES.

What is called EC50 is the concentration giving half of the maximal effect.

T2 sequence (P31422 23-879): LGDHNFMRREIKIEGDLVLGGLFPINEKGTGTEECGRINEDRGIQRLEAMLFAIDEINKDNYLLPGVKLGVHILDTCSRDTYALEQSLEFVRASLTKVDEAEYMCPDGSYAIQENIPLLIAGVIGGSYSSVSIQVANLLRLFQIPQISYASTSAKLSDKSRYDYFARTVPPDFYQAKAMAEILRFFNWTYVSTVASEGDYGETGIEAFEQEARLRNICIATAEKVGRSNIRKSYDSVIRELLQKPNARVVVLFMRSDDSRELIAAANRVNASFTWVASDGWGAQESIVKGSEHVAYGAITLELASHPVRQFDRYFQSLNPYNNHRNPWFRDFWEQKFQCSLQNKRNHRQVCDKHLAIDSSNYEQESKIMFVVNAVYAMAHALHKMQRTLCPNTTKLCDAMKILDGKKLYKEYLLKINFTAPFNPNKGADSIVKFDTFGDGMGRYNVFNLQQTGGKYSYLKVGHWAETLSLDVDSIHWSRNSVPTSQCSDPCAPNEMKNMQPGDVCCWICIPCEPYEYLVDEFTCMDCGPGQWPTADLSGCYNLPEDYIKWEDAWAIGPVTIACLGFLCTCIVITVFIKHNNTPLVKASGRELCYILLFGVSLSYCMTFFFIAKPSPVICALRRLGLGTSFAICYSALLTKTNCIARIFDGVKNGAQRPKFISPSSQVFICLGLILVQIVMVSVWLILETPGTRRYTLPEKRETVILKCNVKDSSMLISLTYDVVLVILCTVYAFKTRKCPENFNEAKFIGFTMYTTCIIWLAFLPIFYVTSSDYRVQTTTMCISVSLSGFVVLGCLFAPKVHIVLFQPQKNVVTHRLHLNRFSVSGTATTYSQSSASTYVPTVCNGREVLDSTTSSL
T2 sequence (P31422 23-879): as above
T1 sequence (P31421 19-872): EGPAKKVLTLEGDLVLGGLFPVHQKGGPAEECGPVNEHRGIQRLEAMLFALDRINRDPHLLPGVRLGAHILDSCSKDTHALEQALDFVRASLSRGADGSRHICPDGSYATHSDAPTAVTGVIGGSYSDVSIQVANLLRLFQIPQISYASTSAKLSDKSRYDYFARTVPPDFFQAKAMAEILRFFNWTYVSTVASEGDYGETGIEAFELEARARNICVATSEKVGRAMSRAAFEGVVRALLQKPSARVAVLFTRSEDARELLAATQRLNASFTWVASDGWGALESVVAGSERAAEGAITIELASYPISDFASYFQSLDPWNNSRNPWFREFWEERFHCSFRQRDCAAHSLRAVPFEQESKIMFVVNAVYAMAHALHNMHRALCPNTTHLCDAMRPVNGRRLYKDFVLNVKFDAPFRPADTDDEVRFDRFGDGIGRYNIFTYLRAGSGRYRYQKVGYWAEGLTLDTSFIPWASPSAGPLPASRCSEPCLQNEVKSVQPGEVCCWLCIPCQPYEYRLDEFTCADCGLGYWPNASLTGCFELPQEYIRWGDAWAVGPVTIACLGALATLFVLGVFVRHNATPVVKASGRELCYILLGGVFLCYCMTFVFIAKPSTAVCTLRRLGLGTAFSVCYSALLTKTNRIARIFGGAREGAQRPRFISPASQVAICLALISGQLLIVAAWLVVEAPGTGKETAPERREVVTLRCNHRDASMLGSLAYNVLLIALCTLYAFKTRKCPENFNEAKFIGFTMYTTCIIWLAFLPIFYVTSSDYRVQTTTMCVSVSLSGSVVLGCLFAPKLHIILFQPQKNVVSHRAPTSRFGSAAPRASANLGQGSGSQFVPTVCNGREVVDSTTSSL
T1 sequence (P31421 19-872): as above
Chain of mGluR2 WT/YADA heterodimer (P31421 19-872, stated change not applied): as the sequence (P31421 19-872) above
Chain of mGluR2 WT/YADA heterodimer (P31421 19-872 Y216A/D295A): as the sequence (P31421 19-872) above, with Y198A, D277A counted along it
Chain of mGluR2-YADA (Y216A and D295A) (P31421 19-872 Y216A/D295A): as the sequence (P31421 19-872) above, with Y198A, D277A counted along it
Chain of mGluR2-YADA (Y216A and D295A) (P31421 19-872 Y216A/D295A): as the sequence (P31421 19-872) above, with Y198A, D277A counted along it

Consider `N[C@@]1(C(=O)O)CO[C@H]2[C@H](C(=O)O)[C@H]21` [LY379268], for which, at mGluR2 [1] (saturating agonist, compared with glutamate), the “occupancy of the active (low FRET) state” value is listed as “more complete occupancy of the active state than glutamate”.

As for `N[C@@H](CCC(=O)O)C(=O)O` [glutamate], at mGluR2 [1] (WT/WT homodimer), the “maximal medium FRET occupancy” value is on record as ~ 25%. Also, at mGluR3 [2], the EC50 turned out to be 0.5 ± 0.2 µM. Further, on mGluR3 [3], the “average active state lifetime” value stood at 183 ms. In addition, the “occupancy of the medium FRET state” value in assay [4] is ~ 55%. Besides, the “effect on the FRET histogram” value in assay [5] is “no effect”.

Take `[Ca+2]` [Ca^2+]: the “effect on low FRET state occupancy” value on mGluR3 [3] (0 glutamate) is “concentration-dependent increase in low FRET state occupancy”. Also, on mGluR3 [3], the “average active state lifetime” value was determined as 183 ms.

Consider `COc1ccccc1Oc1ccc(N(Cc2cccnc2)S(=O)(=O)CC(F)(F)F)cc1` [LY48739, LY487379], for which, on mGluR2 [1] (in the presence of DCG-IV (1 μM)), the “effect on relative occupancy of the low FRET state” value was “increased the relative occupancy of the low FRET state”. Besides, the “effect on DCG-IV response in ensemble FRET” value on mGluR2 [6] is “increases the apparent affinity and efficacy of DCG-IV”.

In the case of `N[C@H](C(=O)O)C1[C@@H](C(=O)O)[C@@H]1C(=O)O` (some centres unmarked) [DCG-IV], at mGluR2 [1] (saturating concentrations (≥100 μM)), the “share of distribution remaining in the high and medium FRET states” value is given as ~ 30%.
